Converted amounts (≈) assume the structure as drawn. Bounds are passed on as bounds.

Assay [1] concerns Micrococcus luteus. Put plainly: Antimicrobial activity against Micrococcus luteus MTCC 2470 incubated for 24 hrs at 37 degC by well diffusion method. The format is functional. As to conditions: MTCC 2470, 24 h.
The subject of assay [2] is Raoultella planticola. Put plainly: Antimicrobial activity against Klebsiella planticola MTCC 530 incubated for 24 hrs at 37 degC by well diffusion method. The format is functional. As to conditions: MTCC 530, 24 h.
The subject of assay [3] is Pseudomonas aeruginosa. In words: Antimicrobial activity against Pseudomonas aeruginosa MTCC 2453 incubated for 24 hrs at 37 degC by well diffusion method. In kind it is functional. Particulars: MTCC 2453, 24 h. On the technique in general: In agar diffusion tests the substance spreads into inoculated agar from a disc or well.
Assay [4] concerns Staphylococcus aureus. Put plainly: Antimicrobial activity against Staphylococcus aureus MLS16 MTCC 2940 incubated for 24 hrs at 37 degC by well diffusion method. The format is functional. As to conditions: MLS16 MTCC 2940, 24 h.
Assay [5] deals with Bacillus subtilis. Put plainly: Antimicrobial activity against Bacillus subtilis MTCC 121 incubated for 24 hrs at 37 degC by well diffusion method. The format is functional. Particulars: MTCC 121, 24 h.
The test system of assay [6] is Candida albicans. In words: Antimicrobial activity against Candida albicans MTCC 3017 incubated for 24 hrs at 30 degC by well diffusion method. In kind it is functional. Particulars: MTCC 3017, 24 h.
Assay [7] concerns Escherichia coli. In words: Antimicrobial activity against Escherichia coli MTCC 739 incubated for 24 hrs at 37 degC by well diffusion method. In kind it is functional. Particulars: MTCC 739, 24 h.
Assay [8] has as its system Raoultella planticola. In words: Inhibition of bio-film formation of Klebsiella planticola MTCC 530 incubated for 24 hrs at 37 degC under static conditions by crystal violet staining method. In kind it is functional, organism-based. As to conditions: MTCC 530, 24 h.
Assay [9] relates to Staphylococcus aureus. In words: Bactericidal activity against Staphylococcus aureus MLS16 MTCC 2940 incubated for 24 hrs at 37 degC. In kind it is functional. As to conditions: MLS16 MTCC 2940, 24 h.
Assay [10] deals with Micrococcus luteus. Put plainly: Inhibition of bio-film formation of Micrococcus luteus MTCC 2470 incubated for 24 hrs at 37 degC under static conditions by crystal violet staining method. The format is functional, organism-based. As to conditions: MTCC 2470, 24 h.
In assay [11] the test system is Escherichia coli. In words: Bactericidal activity against Escherichia coli MTCC 739 incubated for 24 hrs at 37 degC. In kind it is functional. As to conditions: MTCC 739, 24 h.
The subject of assay [12] is Raoultella planticola. Put plainly: Bactericidal activity against Klebsiella planticola MTCC 530 incubated for 24 hrs at 37 degC. In kind it is functional. Particulars: MTCC 530, 24 h.
The test system of assay [13] is Micrococcus luteus. In words: Bactericidal activity against Micrococcus luteus MTCC 2470 incubated for 24 hrs at 37 degC. In kind it is functional. Particulars: MTCC 2470, 24 h.
The subject of assay [14] is Staphylococcus aureus. In words: Inhibition of bio-film formation of Staphylococcus aureus MLS16 MTCC 2940 incubated for 24 hrs at 37 degC under static conditions by crystal violet staining method. As to conditions: MLS16 MTCC 2940, 24 h. In kind it is functional, organism-based.
In assay [15] the test system is Bacillus subtilis. Put plainly: Inhibition of bio-film formation of Bacillus subtilis MTCC 121 incubated for 24 hrs at 37 degC under static conditions by crystal violet staining method. In kind it is functional, organism-based. As to conditions: MTCC 121, 24 h.
In assay [16] the test system is Escherichia coli. Put plainly: Inhibition of bio-film formation of Escherichia coli MTCC 739 incubated for 24 hrs at 37 degC under static conditions by crystal violet staining method. In kind it is functional, organism-based. As to conditions: MTCC 739, 24 h.
Assay [17] concerns Bacillus subtilis. Put plainly: Bactericidal activity against Bacillus subtilis MTCC 121 incubated for 24 hrs at 37 degC. In kind it is functional. As to conditions: MTCC 121, 24 h.

For orientation: MIC means the least concentration at which growth counts as inhibited. High values mean a less susceptible organism, low ones a more susceptible organism. As to `CC(=O)NCC1=Cc2ccccc2OC1(O)C(F)(F)F` (stereo not given), the minimum inhibitory concentration (MIC) in [1], in assay [2], in assay [3], in assay [4], in [5] and in assay [6] was greater than 125 µg/mL throughout. In addition, the MIC in assay [7] was greater than 125 µg/mL.
As usually defined, the IC50 is the concentration at which inhibition is half-maximal. A low value points to greater potency in that assay. As a reminder, the MBC is the lowest tested concentration that kills the bacteria rather than only halting them. Read a high MBC as less potent killing. In the case of `O=C(CBr)NCC1=Cc2ccccc2OC1(O)C(F)(F)F` (stereo not given), the concentration for half-maximal inhibition (IC50) was 12.7 µM in [8]; 8.3 µM in [10]; 3.6 µM in [14]; 5.1 µM in assay [15]; 10.5 µM in [16]. Moreover, the MBC came to 19.1 µM (≈ 6.99 µg/mL) in [9]; 38.3 µM (≈ 14 µg/mL) in assay [11]; 19.1 µM (≈ 6.99 µg/mL) in [12]; 38.3 µM (≈ 14 µg/mL) in [13]; 19.1 µM (≈ 6.99 µg/mL) in [17]. In addition, the MIC is 19.1 µM in [1]; 19.1 µM in [2]; greater than 125 µg/mL in assay [3]; 9.5 µM in assay [4]; 9.5 µM in [5]; greater than 125 µg/mL in assay [6]. This compound showed a minimal inhibitory concentration (MIC) in assay [7] of 19.1 µM.
For the compound `O=C(Cc1ccccc1)NCC1=Cc2cc(Br)ccc2OC1(O)C(F)(F)F` (stereo not given), the MBC was 67.2 µM (≈ 29.7 µg/mL) in assay [9]; greater than 230 µM in [11]; greater than 230 µM in assay [12]; 33.6 µM (≈ 14.9 µg/mL) in assay [13]; greater than 230 µM in assay [17]. Also, the IC50 worked out at 19.1 µM in [10] and 21.9 µM in assay [14]. The MIC in assay [1] was greater than 125 µg/mL; in assay [2], 33.6 µM; in assay [3], greater than 125 µg/mL; in [4], 33.6 µM; in assay [5], greater than 125 µg/mL; in assay [6], greater than 125 µg/mL. This compound also came in with an MIC in assay [7] greater than 125 µg/mL.
`Clc1ccc(COC(Cn2ccnc2)c2ccc(Cl)cc2Cl)c(Cl)c1` (stereo not given) [MICONAZOLE]: the MIC is greater than 125 µg/mL in assay [1]; greater than 125 µg/mL in assay [2]; greater than 125 µg/mL in [3]; greater than 125 µg/mL in assay [4]; greater than 125 µg/mL in [5]; 18.7 µM in [6]. In [7], this compound showed an MIC greater than 125 µg/mL.
Take `O=C(CCCCBr)NCC1=Cc2ccccc2OC1(O)C(F)(F)F` (stereo not given): the MIC in assay [1], in assay [2], in [3], in assay [4], in assay [5] and in assay [6] was greater than 125 µg/mL throughout. The compound also had a minimum inhibitory concentration (MIC) in assay [7] greater than 125 µg/mL.
Regarding `O=C(CCCCBr)NCC1=Cc2cc(Br)ccc2OC1(O)C(F)(F)F` (stereo not given), the MIC in assay [1], in [2], in assay [3], in [4], in [5] and in assay [6] was greater than 125 µg/mL each time. In addition, the minimal inhibitory concentration (MIC) in assay [7] was greater than 125 µg/mL.
With `O=C(Cc1cccc(Cl)c1)NCC1=Cc2ccccc2OC1(O)C(F)(F)F` (stereo not given), the minimal bactericidal concentration (MBC) in assay [9] is 37.1 µM (≈ 14.8 µg/mL); in assay [11], greater than 230 µM; in [12], greater than 230 µM; in assay [13], 74.2 µM (≈ 29.5 µg/mL); in assay [17], 74.2 µM (≈ 29.5 µg/mL). For the same compound, the half-maximal inhibitory concentration (IC50) in [10] worked out at 17.1 µM; in assay [14], 19.7 µM; in assay [15], 43.8 µM. The MIC was greater than 125 µg/mL in [1]; 37.1 µM in [2]; greater than 125 µg/mL in [3]; 37.1 µM in assay [4]; 74.2 µM in assay [5]; greater than 125 µg/mL in [6]. Also, the MIC in [7] was greater than 125 µg/mL.
Take `O=C(Cc1ccc(Br)cc1)NCC1=Cc2ccccc2OC1(O)C(F)(F)F` (stereo not given): the minimum bactericidal concentration (MBC) is 67.2 µM (≈ 29.7 µg/mL) in assay [9]; greater than 230 µM in assay [11]; greater than 230 µM in assay [12]; 33.6 µM (≈ 14.9 µg/mL) in assay [13]; greater than 230 µM in [17]. The IC50 in assay [10] amounted to 17.4 µM; in assay [14] it was 16.8 µM. Moreover, the minimal inhibitory concentration (MIC) in assay [1] was greater than 125 µg/mL; in assay [2], 33.6 µM; in assay [3] it was greater than 125 µg/mL; in [4] it was greater than 125 µg/mL; in assay [5], 33.6 µM; in assay [6] it was greater than 125 µg/mL. For the same compound, in [7], the minimal inhibitory concentration (MIC) is greater than 125 µg/mL.
`O=C(Cc1ccccc1)NCC1=Cc2ccccc2OC1(O)C(F)(F)F` (stereo not given): the minimum inhibitory concentration (MIC) in assay [1], in assay [2], in assay [3], in [4], in assay [5] and in assay [6] was greater than 125 µg/mL each time. In [7], this compound displayed an MIC greater than 125 µg/mL.

(Values after ChEMBL document CHEMBL3596103, “Synthesis of novel amide functionalized 2H-chromene derivatives by Ritter amidation of primary alcohol using HBF4·OEt2 as a mild and versatile reagent and evaluation of their antimicrobial and anti-biofilm activities” (Bioorg Med Chem Lett, 2015).)
